Each structure is given as a SMILES string. Where only a bound is given, the exact number is not on record here.

For this experiment, the target named is T1, Jak3 (Homo sapiens, UniProt P52333).
T1 construct: A fragment encoding the catalytic domain of Jak3 (508aa to 1124aa) was ligated with GST at 5′ end; made in house; host or cells: Sf9 insect cells (baculovirus, pFastBac 1)
T1 sequence (P52333 508-1124): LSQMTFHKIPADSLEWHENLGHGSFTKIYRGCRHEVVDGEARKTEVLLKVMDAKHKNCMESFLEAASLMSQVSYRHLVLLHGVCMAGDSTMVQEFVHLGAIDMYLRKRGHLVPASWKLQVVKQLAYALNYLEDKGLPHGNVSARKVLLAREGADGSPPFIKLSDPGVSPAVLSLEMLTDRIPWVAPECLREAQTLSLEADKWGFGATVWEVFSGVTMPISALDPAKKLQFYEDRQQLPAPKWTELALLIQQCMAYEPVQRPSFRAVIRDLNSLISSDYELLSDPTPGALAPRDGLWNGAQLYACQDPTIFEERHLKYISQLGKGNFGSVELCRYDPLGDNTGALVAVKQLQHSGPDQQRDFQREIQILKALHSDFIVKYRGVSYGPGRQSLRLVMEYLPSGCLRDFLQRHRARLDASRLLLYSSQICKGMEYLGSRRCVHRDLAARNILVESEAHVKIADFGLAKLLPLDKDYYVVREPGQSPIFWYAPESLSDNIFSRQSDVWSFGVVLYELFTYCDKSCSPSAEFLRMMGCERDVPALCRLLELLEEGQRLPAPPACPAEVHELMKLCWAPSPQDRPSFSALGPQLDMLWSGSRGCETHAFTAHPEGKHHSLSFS
The experiment can be described thus: Jak3 Kinase Assay (HTRF). The conditions noted are these: GST-Jak3 catalytic domain, 1 μM ATP, 60-min incubation; read-out: Jak3 Kinase, IC50 representation. It is filed as biochemical. As for the experimental part:
Human Jak3 cDNA was amplified by PCR. A fragment encoding the catalytic domain of Jak3 (508aa to 1124aa) was ligated with GST at 5′ end. This fused GST-Jak3 DNA fragment was cloned into the EcoRI site of the donor plasmid pFastBac 1 (Life Technologies #10359-016). The transformation, transposition, and transfection of insect cells (Sf9) were performed according to the manufacture's instructions. The cell lysate containing recombinant GST-Jak3 was used in the kinase assay. Anti-GST antibody (10 μg/ml, Sigma #G1417) was coated onto a 384-well plate at 4° C. overnight. Cell lysate containing GST-Jak3 (1:100 dilution) was added to the anti-GST coated plates, and GST-Jak3 was captured by immobilized anti-GST antibody. Testing compounds and substrate mix (50 mM HEPES, pH 7, 0.5 mM Na3VO4, 25 mM MgCl2, 1 mM DTT, 0.005% BSA, 1 μM ATP, and 4.5 μg/ml biotinyl poly-Glu,Ala,Tyr) were added to the plate to initiate the reaction. After a 60-min incubation, the reaction was stopped by 4 mM EDTA, and phosphorylation of biotinyl poly-Glu,Ala,Tyr was detected using 17 μg/ml Cy5-streptavidin (Amersham, #PA92005) and 2.7 μg/ml Europium-conjugated anti-phosphotyrosine antibody (PerkinElmer #AD0069) using homogeneous time-resolved fluorescence (HTRF) technology.
Regarding `N#Cc1ccc2ncn(-c3nc(NCCCN4CCCCC4)c4[nH]c(=O)n(C5CCOCC5)c4n3)c2c1`, the IC50 was under 100 nM.
For `Cn1c(=O)n([C@H]2CC[C@H](O)CC2)c2nc(-n3cnc4ccc(F)cc43)nc(N3CC[C@H](F)C3)c21` the value was under 100 nM; for `CN1CCN(c2nc(-n3cnc4ccc(C#N)cc43)nc3c2[nH]c(=O)n3C2CCOCC2)CC1`, under 100 nM.
As for `N#Cc1ccc2ncn(-c3nc(N4CC(C(=O)O)C4)c4[nH]c(=O)n(C5CCOCC5)c4n3)c2c1`, the IC50 was under 100 nM.
The result for `N#Cc1ccc2ncn(-c3nc(N4CC(F)(F)C4)c4[nH]c(=O)n(C5CCOCC5)c4n3)c2c1` reads under 100 nM; that for `CNC(=O)c1nc(-n2cnc3ccc(F)cc32)nc2c1[nH]c(=O)n2C1CCOc2ccccc21` (centres unmarked), under 100 nM.
For `Cn1c(=O)n([C@H]2CC[C@H](O)CC2)c2nc(-n3cnc4ccc(F)cc43)nc(N3CCCCC3)c21` the value was under 100 nM; for `COCCCn1c(=O)[nH]c2c(N3CC(F)(F)C3)nc(-n3cnc4ccc(C#N)cc43)nc21`, under 100 nM.
For `COc1ccc(-c2nc(-n3cnc4ccc(F)cc43)nc3c2[nH]c(=O)n3C2CCOCC2)cn1`, the IC50 was under 100 nM.
With `CCc1noc(CNc2nc(-n3cnc4ccc(F)cc43)nc3c2[nH]c(=O)n3C2CCOCC2)n1`, the half-maximal inhibitory concentration (IC50) is under 100 nM.
As to `CO[C@H]1CC[C@H](n2c(=O)[nH]c3c(N4CC(F)(F)C4)nc(-n4cnc5ccc(C#N)cc54)nc32)CC1`, the half-maximal inhibitory concentration (IC50) is under 100 nM.
In the case of `O=c1[nH]c2c(-c3cccnc3)nc(-n3cnc4ccc(F)cc43)nc2n1C1CCOCC1`, the IC50 was under 100 nM.
In the case of `O=c1[nH]c2c(N[C@@H]3CCC[C@@H]3O)nc(-n3cnc4ccc(F)cc43)nc2n1C1CCOCC1`, the half-inhibitory concentration (IC50) is under 100 nM.
The result for `O=c1[nH]c2c(Oc3ccncc3)nc(-n3cnc4ccc(F)cc43)nc2n1C1CCOCC1` reads under 100 nM.
As for `N#CCNC(=O)c1nc(-n2cnc3ccc(F)cc32)nc2c1[nH]c(=O)n2C1CCOc2ccccc21` (centres unmarked), the half-inhibitory concentration (IC50) was under 100 nM.
With `N#Cc1ccc2ncn(-c3nc(N4CC(F)(F)C4)c4[nH]c(=O)n(CC5CCOC5)c4n3)c2c1` (centres unmarked), the IC50 was under 100 nM.
For `O=c1[nH]c2c(NC3CCC3)nc(-n3cnc4ccc(F)cc43)nc2n1C1CCOCC1` the value was under 100 nM; for `O=c1[nH]c2c(Cl)nc(-n3cnc4ccc(F)cc43)nc2n1[C@@H]1CCOc2c(F)cccc21`, under 100 nM; for `O=C(c1nc(-n2cnc3ccc(F)cc32)nc2c1[nH]c(=O)n2C1CCOc2ccccc21)N1CCCCC1` (centres unmarked), under 100 nM.
Turning to `O=c1[nH]c2c(-c3ccc(F)nc3)nc(-n3cnc4ccc(F)cc43)nc2n1C1CCOCC1`, the 50% inhibitory concentration (IC50) is under 100 nM.
With `Cn1c(=O)n(C2CCOCC2)c2nc(-n3cnc4ccc(Cl)cc43)nc(NCC(F)(F)CCl)c21`, the 50% inhibitory concentration (IC50) was under 100 nM.
For `O=c1[nH]c2c(Oc3cccnc3)nc(-n3cnc4ccc(F)cc43)nc2n1C1CCOCC1` the value was under 100 nM; for `N#Cc1ccc2ncn(-c3nc(NC4CCCC4)c4[nH]c(=O)n(C5CCOCC5)c4n3)c2c1`, under 100 nM; for `Cn1c(=O)n([C@H]2CC[C@H](O)CC2)c2nc(-n3cnc4ccc(F)cc43)nc(N3CCC(F)(F)CC3)c21`, under 100 nM.
As for `N#CCNC(=O)c1nc(-n2cnc3ccc(F)cc32)nc2c1[nH]c(=O)n2C1CCOCC1`, the IC50 is under 100 nM.
For `O=c1[nH]c2c(OC3CCC3)nc(-n3cnc4ccc(F)cc43)nc2n1C1CCOCC1` the value was under 100 nM; for `COc1ccc(-c2nc(-n3cnc4ccc(F)cc43)nc3c2[nH]c(=O)n3C2CCOCC2)cc1`, under 100 nM; for `N#Cc1ccc(-c2nc(-n3cnc4ccc(F)cc43)nc3c2[nH]c(=O)n3C2CCOCC2)cc1`, under 100 nM.
As to `O=c1[nH]c2c(-c3cncnc3)nc(-n3cnc4ccc(F)cc43)nc2n1C1CCOCC1`, the half-inhibitory concentration (IC50) was under 100 nM.
For `O=c1[nH]c2c(-c3ccccc3)nc(-n3cnc4ccc(F)cc43)nc2n1C1CCOCC1` the value was under 100 nM; for `CNC(=O)c1nc(-n2cnc3ccc(F)cc32)nc2c1[nH]c(=O)n2C1CCOCC1`, under 100 nM.
For `CC(C)(C)NS(=O)(=O)c1cccc(-c2nc(-n3cnc4ccc(F)cc43)nc3c2[nH]c(=O)n3C2CCOCC2)c1` the value was under 100 nM.
`O=c1[nH]c2c(-c3cccc4[nH]ccc34)nc(-n3cnc4ccc(F)cc43)nc2n1C1CCOCC1`: the half-maximal inhibitory concentration (IC50) is under 100 nM.
As for `O=c1[nH]c2c(-c3ccncc3)nc(-n3cnc4ccc(OC(F)(F)F)cc43)nc2n1C1CCOCC1`, the IC50 fell in the range of 100 to 1000 nM.
For `O=C(c1nc(-n2cnc3ccc(F)cc32)nc2c1[nH]c(=O)n2C1CCOCC1)N1CCCCC1` the value was 100 to 1000 nM; for `O=c1[nH]c2c(-c3ccc(F)cc3)nc(-n3cnc4ccc(F)cc43)nc2n1C1CCOCC1`, 100 to 1000 nM.
Take `O=c1[nH]c2c(CO)nc(-n3cnc4ccc(F)cc43)nc2n1C1CCOCC1`: the 50% inhibitory concentration (IC50) is 100 to 1000 nM.
Consider `CCOC(=O)c1nc(-n2cnc3ccc(F)cc32)nc2c1[nH]c(=O)n2C1CCOc2ccccc21` (centres unmarked), for which the concentration for half-maximal inhibition (IC50) was 100 to 1000 nM.
The result for `O=c1[nH]c2c(OCC3CC3)nc(-n3cnc4ccc(F)cc43)nc2n1C1CCOCC1` reads 100 to 1000 nM; that for `CCOC(=O)c1nc(-n2cnc3ccc(F)cc32)nc2c1[nH]c(=O)n2C1CCOCC1`, 100 to 1000 nM; that for `CCOC(=O)CCc1nc(-n2cnc3ccc(F)cc32)nc2c1[nH]c(=O)n2[C@@H]1CCOc2c(F)cccc21`, 100 to 1000 nM.
For `O=C(O)c1nc(-n2cnc3ccc(F)cc32)nc2c1[nH]c(=O)n2C1CCOCC1` the value was 100 to 1000 nM.
With `O=c1[nH]c2c(OC3CCOC3)nc(-n3cnc4ccc(F)cc43)nc2n1C1CCOCC1` (centres unmarked), the 50% inhibitory concentration (IC50) was in the range of 100 to 1000 nM.
As to `CO[C@H]1CC[C@H](n2c(=O)[nH]c3c(Cl)nc(-n4cnc5ccc(C#N)cc54)nc32)CC1`, the IC50 was 100 to 1000 nM.
For `O=c1[nH]c2c(-c3ccccc3)nc(-n3cnc4ccc(F)cc43)nc2n1[C@@H]1CCOc2c(F)cccc21` the value was 100 to 1000 nM; for `CC1CCN(c2nc(-n3cnc4ccc(Cl)cc43)nc3c2[nH]c(=O)n3C2CCOCC2)CC1`, 100 to 1000 nM; for `N#Cc1ccc(-c2nc(-n3cnc4ccc(F)cc43)nc3c2[nH]c(=O)n3[C@@H]2CCOc3c(F)cccc32)cc1`, 100 to 1000 nM.
Take `O=c1[nH]c2c(NCc3ccccc3)nc(-n3cnc4ccc(F)cc43)nc2n1C1CCOCC1`: the concentration for half-maximal inhibition (IC50) was 100 to 1000 nM.
For the compound `Cc1cccc(-c2nc(-n3cnc4ccc(F)cc43)nc3c2[nH]c(=O)n3C2CCOCC2)c1`, the IC50 was in the range of 100 to 1000 nM.
`O=c1[nH]c2c(C3CCC3)nc(-n3cnc4ccc(F)cc43)nc2n1C1CCOCC1`: the concentration for half-maximal inhibition (IC50) is 100 to 1000 nM.
For `O=c1[nH]c2c(NCC3CC3)nc(-n3cnc4ccc(F)cc43)nc2n1[C@@H]1CCOc2c(F)cccc21` the value was 100 to 1000 nM; for `O=c1[nH]c2c(-c3ccccc3)nc(-n3cnc4ccccc43)nc2n1[C@@H]1CCOc2ccc(F)cc21`, 100 to 1000 nM; for `O=c1[nH]c2c(Cc3ccccc3)nc(-n3cnc4ccc(F)cc43)nc2n1[C@@H]1CCOc2c(F)cccc21`, 100 to 1000 nM.
For `C[C@H](Nc1nc(-n2cnc3ccc(F)cc32)nc2c1[nH]c(=O)n2C1CCOCC1)c1ccccc1` the value was 100 to 1000 nM.
The result for `O=c1[nH]c2c(-c3ccccc3)nc(-n3cnc4ccccc43)nc2n1C1CCOCC1` reads 100 to 1000 nM.
For the compound `O=c1[nH]c2c(-c3ccc(Cl)cc3)nc(-n3cnc4ccc(F)cc43)nc2n1C1CCOCC1`, the IC50 was 100 to 1000 nM.
As to `O=c1[nH]c2c(-c3ccc(Cl)cc3)nc(-n3cnc4ccc(F)cc43)nc2n1[C@@H]1CCOc2c(F)cccc21`, the half-inhibitory concentration (IC50) was 100 to 1000 nM.
Turning to `CC(C)CNc1nc(-n2cnc3ccc(F)cc32)nc2c1[nH]c(=O)n2[C@@H]1CCOc2c(F)cccc21`, the 50% inhibitory concentration (IC50) is 100 to 1000 nM.
The result for `CC(C)Cc1nc(-n2cnc3ccc(F)cc32)nc2c1[nH]c(=O)n2[C@@H]1CCOc2c(F)cccc21` reads 100 to 1000 nM; that for `O=c1[nH]c2c(-c3cccc(Cl)c3)nc(-n3cnc4ccc(F)cc43)nc2n1C1CCOCC1`, 100 to 1000 nM.
The result for `O=c1[nH]c2c(-c3cccc4cnccc34)nc(-n3cnc4ccc(F)cc43)nc2n1C1CCOCC1` reads 100 to 1000 nM; that for `CCCCc1nc(-n2cnc3ccc(F)cc32)nc2c1[nH]c(=O)n2[C@@H]1CCOc2c(F)cccc21`, over 1000 nM.

The record behind these values is US7902187B2, “6-substituted 2-(benzimidazolyl)purine and purinone derivatives for immunosuppression” (Wyeth LLC, priority 2006, dated 2011).
